Experiment [1] concerns CHSA8926 (Chondrosarcoma). The experiment can be described thus: Bliss excess, mean over the matrix (fraction); higher = more synergy. Summed up: (§1)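 After 24 hours at 37°C and 5% CO2 in 1536-well plates, cells in DMEM/F12 or RPMI plus 10% FBS received two-drug dose matrices for 72 hours. Viability came from CellTiter-Glo 2.0 luminescence and was scaled as inhibition, anchored at 0 by vehicle wells and at 1 by blank wells. Combination Emax is taken as the second-highest inhibition in the matrix, and Bliss excess as the observed combination effect less EA + EB − EA·EB, with EA and EB the single-agent effects.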

The subject of experiment [2] is H9 (T-Cell Non-Hodgkin's Lymphoma). The experiment is described as above. Summed up: as §1
Experiment [3] relates to HCC1187 (Breast Carcinoma). The description is as above. The gist of the method:
as §1

In experiment [4] the test system is IM-95 (Gastric Carcinoma). The experiment is described as above. The gist of the method: as §1
Experiment [5] relates to JHH-4 (Hepatocellular Carcinoma). The experiment is described as above. Summed up:
as §1

Experiment [6] concerns KU812 (Chronic Myelogenous Leukemia). Described as above. Summed up:
as §1

The test system of experiment [7] is KY821 (Acute Myeloid Leukemia). The experiment is described as above. Summed up: as §1
Experiment [8] relates to MOG-G-CCM (Low Grade Glioma). The description is as above. Summed up: as §1
For a further experiment, the system named is NCI-H2731 (Mesothelioma). The experiment is described as above. Summed up: as §1
The test system of experiment [9] is NCI-H3122 (Lung Adenocarcinoma). The experiment is described as above. The gist of the method:
as §1

Experiment [10] concerns NCI-H520 (Squamous Cell Lung Carcinoma). The description is as above. The gist of the method: as §1
Experiment [11] relates to NCI-H661 (Non-Small Cell Lung Carcinoma). The experiment is described as above. Summed up:
as §1

Experiment [12] concerns NCI-H929 (Plasma Cell Myeloma). The description is as above. The gist of the method: as §1
Experiment [13] has as its system PC-3 (Prostate Carcinoma). Described as above. The gist of the method:
as §1

The test system of another experiment is RD (Rhabdomyosarcoma). The description is as above. Summed up: as §1
A further experiment deals with SJSA-1 (Osteosarcoma). The experiment is described as above. The gist of the method:
as §1

Experiment [14] relates to SK-GT-4 (Esophageal Adenocarcinoma). Described as above. Summed up: as §1
The test system of experiment [15] is SU-DHL-5 (B-Cell Non-Hodgkin's Lymphoma). Described as above. Summed up:
as §1

Experiment [16] deals with T-T (Esophageal Squamous Cell Carcinoma). The experiment is described as above. Summed up:
as §1

In experiment [17] the test system is PC-3 (Prostate Carcinoma). The experiment can be described thus: combination Emax (second highest fraction inhibited in the dose matrix, 72 h); higher = more inhibition; extreme values may be limits of the assay. Summed up: as §1

SMILES strings stand for the structures.
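Throughout, for Bliss excess, mean over the matrix: after 72 h of two-drug dosing.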

In the case of `NC1(C(=O)N[C@@H](CCO)c2ccc(Cl)cc2)CCN(c2ncnc3[nH]ccc23)CC1` [Capivasertib] + CCN(CCO)CCCOc1ccc2c(Nc3cc(CC(=O)Nc4cccc(F)c4)[nH]n3)ncnc2c1 [AZD2811] (first compound max 10 µM, 7x7, partner max 1 µM), the Bliss excess in experiment [1] is -0.0687; in [2], -0.0361; in experiment [3] it was -0.0597; in experiment [4] it was -0.0168; in experiment [5], -0.0088; in experiment [6], 0.0173. Besides, the Bliss excess in experiment [7] was 0.052; in experiment [8] it was -0.0373; in the experiment on NCI-H2731 (Mesothelioma) it was 0.0438; in experiment [9] it was -0.0428; in experiment [10], -0.004; in experiment [11], -0.0058. The Bliss excess in experiment [12] was 0.025; in experiment [13] it was 0.0151; in the experiment on RD (Rhabdomyosarcoma), -0.0211; in the experiment with SJSA-1 (Osteosarcoma), -0.0297; in experiment [14], -0.016; in experiment [15], -0.0225. The Bliss excess in [16] is 0.013. For the same compound, the “combination Emax” value in experiment [17] was determined as 0.401.
Regarding `CC1(C)CCC(CN2CCN(c3ccc(C(=O)NS(=O)(=O)c4ccc(NCC5CCOCC5)c([N+](=O)[O-])c4)c(Oc4cnc5[nH]ccc5c4)c3)CC2)=C(c2ccc(Cl)cc2)C1` [Venetoclax] + CN(C)CCCOc1ccc(-c2ccc3ncc4c(c3c2)n(C2CCOCC2)c(=O)n4C)cn1 [AZD0156] (first compound max 1 µM, 7x7, partner max 1 µM), the Bliss excess in [1] was -0.0249; in experiment [2] it was -0.0035; in experiment [3], -0.0071; in [4] it was -0.0016; in experiment [5], -0.0078; in experiment [6], -0.0404. Moreover, the Bliss excess in experiment [7] was -0.0104; in experiment [8], -0.0198; in the experiment on NCI-H2731 (Mesothelioma), -0.029; in experiment [9], -0.0656; in [10], -0.048; in experiment [11], 0.0037. Also, the Bliss excess in experiment [12] is 0.0294; in experiment [13], -0.0363; with RD (Rhabdomyosarcoma), -0.0332; in the experiment on SJSA-1 (Osteosarcoma), -0.0358; in experiment [14], -0.0544; in [15], 0.0045. Moreover, the Bliss excess in experiment [16] worked out at 0.0197. For the same compound, the “combination Emax” value in experiment [17] amounted to 0.21.
For `Cc1cc2ncnn2cc1Nc1ncc2c(n1)n(C1CCOCC1)c(=O)n2C` [AZD7648] + C=CCn1c(=O)c2cnc(Nc3ccc(N4CCN(C)CC4)cc3)nc2n1-c1cccc(C(C)(C)O)n1 [AZD1775] (first compound max 10 µM, partner max 1 µM), the Bliss excess in experiment [1] turned out to be 0.0382; in [2], 0.0346; in experiment [3] it was 0.0302; in [4], 0.0212; in experiment [5] it was 0.04; in experiment [6] it was 0.0177. Moreover, the Bliss excess in experiment [7] is -0.0098; in experiment [8], -0.0309; in the experiment with NCI-H2731 (Mesothelioma), -0.0225; in [9] it was -0.0402; in experiment [10] it was 0.004; in experiment [11] it was -0.0135. In addition, the Bliss excess in [12] was -0.0572; in [13], -0.0415; with RD (Rhabdomyosarcoma), -0.0168; in the experiment on SJSA-1 (Osteosarcoma), -0.024; in experiment [14], -0.0515; in [15], 0.105. The Bliss excess in [16] turned out to be 0.002. For the same compound, the “combination Emax” value in experiment [17] was 0.263.
For `COc1nnc2ccc(N3CCC(c4ccc(OCCN5CCN(C)C(=O)[C@H]5C)cc4)CC3)nn12` [AZD5153] + Cn1cnc2c(F)c(Nc3ccc(Br)cc3Cl)c(C(=O)NOCCO)cc21 [Selumetinib] (first compound max 1 µM, 7x7, partner max 10 µM), the Bliss excess was -0.0599 in experiment [1]; 0.0074 in experiment [2]; -0.0067 in experiment [3]; 0.0649 in experiment [4]; 0.0336 in [5]; 0.0272 in [6]. Moreover, the Bliss excess in experiment [7] was 0.0027; in experiment [8], -0.0198; with NCI-H2731 (Mesothelioma), -0.0445; in [9] it was -0.0818; in [10] it was 0.0319; in experiment [11], -0.0027. Moreover, the Bliss excess in experiment [12] was -0.0068; in [13], -0.0598; with RD (Rhabdomyosarcoma), 0.0333; with SJSA-1 (Osteosarcoma), -0.0377; in experiment [14], -0.0158; in experiment [15], 0.0756. Also, in experiment [16], the Bliss excess was 0.0702. Besides, in experiment [17], the “combination Emax” value came out at 0.299.
As to `C=CCn1c(=O)c2cnc(Nc3ccc(N4CCN(C)CC4)cc3)nc2n1-c1cccc(C(C)(C)O)n1` [AZD1775] + O=C(c1cc(Cc2n[nH]c(=O)c3ccccc23)ccc1F)N1CCN(C(=O)C2CC2)CC1 [Olaparib] (first compound max 1 µM, partner max 10 µM), the Bliss excess in experiment [1] is -0.0167; in experiment [2] it was -0.0075; in experiment [3] it was 0.0546; in [4], -0.0047; in experiment [5] it was -0.0254; in experiment [6], -0.039. The Bliss excess in experiment [7] was 0.019; in [8] it was -0.0542; in the experiment with NCI-H2731 (Mesothelioma), -0.0438; in [9], -0.0111; in [10], -0.0057; in experiment [11], -0.0179. The Bliss excess in experiment [12] was -0.0525; in experiment [13], -0.0663; in the experiment with RD (Rhabdomyosarcoma), -0.0532; in the experiment on SJSA-1 (Osteosarcoma), -0.0262; in experiment [14] it was -0.0709; in experiment [15], 0.0215. Also, the Bliss excess in experiment [16] was -0.002. The “combination Emax” value in experiment [17] worked out at 0.207.
As to `CC(=O)c1c(C)c2cnc(Nc3ccc(N4CCNCC4)cn3)nc2n(C2CCCC2)c1=O` [Palbociclib] + Cn1cnc2c(F)c(Nc3ccc(Br)cc3Cl)c(C(=O)NOCCO)cc21 [Selumetinib] (first compound max 10 µM, 7x7, partner max 10 µM), the Bliss excess was -0.0697 in experiment [1]; -0.0868 in [2]; -0.0142 in [3]; 0.0356 in experiment [4]; -0.0336 in experiment [5]; -0.0536 in [6]. The Bliss excess in experiment [7] is 0.0803; in [8] it was -0.0511; in the experiment on NCI-H2731 (Mesothelioma), -0.0341; in experiment [9] it was -0.0306; in [10], -0.054; in experiment [11] it was -0.0533. Besides, the Bliss excess in experiment [12] is 0.0643; in experiment [13], -0.0627; in the experiment on RD (Rhabdomyosarcoma), 0.0455; in the experiment with SJSA-1 (Osteosarcoma), -0.038; in [14] it was -0.0126; in [15] it was 0.101. Moreover, the Bliss excess in experiment [16] stood at 0.0252. Further, the “combination Emax” value in experiment [17] worked out at 0.145.
Regarding `CCN(CCO)CCCOc1ccc2c(Nc3cc(CC(=O)Nc4cccc(F)c4)[nH]n3)ncnc2c1` [AZD2811] + C[C@@H]1COCCN1C2=NC(=NC(=C2)C3(CC3)[S@](=N)(=O)C)C4=C5C=CNC5=NC=C4 [AZD6738] (first compound max 1 µM, 7x7, partner max 10 µM), the Bliss excess in experiment [1] was -0.0037; in experiment [2] it was -0.0673; in experiment [3] it was -0.0841; in experiment [4], 0.0291; in experiment [5] it was -0.0341; in [6] it was -0.0764. The Bliss excess is 0.105 in [7]; -0.0116 in experiment [8]; -0.0668 in the experiment on NCI-H2731 (Mesothelioma); -0.063 in experiment [9]; -0.0834 in [10]; -0.0567 in experiment [11]. In addition, the Bliss excess in experiment [12] was -0.0341; in experiment [13] it was -0.061; in the experiment with RD (Rhabdomyosarcoma), -0.0325; in the experiment on SJSA-1 (Osteosarcoma), -0.0348; in [14] it was -0.0183; in [15], -0.0382. In experiment [16], the Bliss excess is -0.0105. For the same compound, the “combination Emax” value in [17] came out at 0.431.

Source of the values: the supplement of paper PMC11061612.
